Laboratory results: patent publication US20210198277A1, “AMINE-SUBSTITUTED ARYL OR HETEROARYL COMPOUNDS” (Epizyme, Inc., priority 2016, published 2021)

Key:
EHMT1 = biological target: T1, EHMT1 (Homo sapiens, UniProt Q9H9B1); test: EHMT1 enzyme assay on peptide substrate (EHMT1 PEP); type: biochemical; conditions: Table II; read-out: EHMT1 PEP (IC50 μM)
T1 sequence (Q9H9B1 1-1298): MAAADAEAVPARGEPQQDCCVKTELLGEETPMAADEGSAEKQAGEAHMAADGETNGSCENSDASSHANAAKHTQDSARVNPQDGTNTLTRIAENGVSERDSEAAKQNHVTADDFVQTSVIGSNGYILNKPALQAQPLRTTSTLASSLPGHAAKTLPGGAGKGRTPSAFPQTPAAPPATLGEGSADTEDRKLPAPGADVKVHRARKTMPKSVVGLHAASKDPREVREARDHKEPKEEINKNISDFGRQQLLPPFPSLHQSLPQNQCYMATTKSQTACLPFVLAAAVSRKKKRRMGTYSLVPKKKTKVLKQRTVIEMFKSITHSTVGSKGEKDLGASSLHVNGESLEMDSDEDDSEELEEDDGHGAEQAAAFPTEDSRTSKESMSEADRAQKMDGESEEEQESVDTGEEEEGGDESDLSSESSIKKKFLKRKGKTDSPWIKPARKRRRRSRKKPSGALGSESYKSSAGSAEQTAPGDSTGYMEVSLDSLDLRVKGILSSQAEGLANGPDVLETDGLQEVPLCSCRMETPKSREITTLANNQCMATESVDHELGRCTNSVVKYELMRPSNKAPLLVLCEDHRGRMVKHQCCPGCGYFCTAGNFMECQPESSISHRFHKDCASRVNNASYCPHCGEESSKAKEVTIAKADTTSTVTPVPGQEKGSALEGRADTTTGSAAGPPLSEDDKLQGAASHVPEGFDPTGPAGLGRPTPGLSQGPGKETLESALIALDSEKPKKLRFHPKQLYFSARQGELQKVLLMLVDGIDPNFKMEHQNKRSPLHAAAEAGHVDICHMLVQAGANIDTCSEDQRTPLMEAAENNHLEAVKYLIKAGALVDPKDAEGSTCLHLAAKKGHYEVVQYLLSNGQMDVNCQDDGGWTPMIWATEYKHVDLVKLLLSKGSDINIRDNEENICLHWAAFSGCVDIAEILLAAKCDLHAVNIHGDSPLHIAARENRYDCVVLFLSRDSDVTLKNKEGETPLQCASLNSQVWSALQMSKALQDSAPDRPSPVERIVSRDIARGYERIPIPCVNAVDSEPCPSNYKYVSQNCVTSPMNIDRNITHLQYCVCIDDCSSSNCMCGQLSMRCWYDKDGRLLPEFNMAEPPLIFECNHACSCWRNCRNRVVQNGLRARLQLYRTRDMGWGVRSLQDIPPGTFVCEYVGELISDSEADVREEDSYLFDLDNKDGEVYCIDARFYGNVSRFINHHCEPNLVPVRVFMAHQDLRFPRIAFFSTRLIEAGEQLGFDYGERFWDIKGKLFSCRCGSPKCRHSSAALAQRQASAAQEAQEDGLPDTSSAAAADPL

human EHMT2 913-1193 = biological target: T2, human EHMT2 913-1193 (Homo sapiens, UniProt Q96KQ7); test: EHMT2 enzyme assay on histone peptide substrate (EHMT2 PEP); type: biochemical; conditions: Table II; read-out: EHMT2 PEP (IC50 μM)
T2 construct: recombinant purified human EHMT2 913-1193, Viva; purchased Viva
T2 sequence (Q96KQ7 913-1193): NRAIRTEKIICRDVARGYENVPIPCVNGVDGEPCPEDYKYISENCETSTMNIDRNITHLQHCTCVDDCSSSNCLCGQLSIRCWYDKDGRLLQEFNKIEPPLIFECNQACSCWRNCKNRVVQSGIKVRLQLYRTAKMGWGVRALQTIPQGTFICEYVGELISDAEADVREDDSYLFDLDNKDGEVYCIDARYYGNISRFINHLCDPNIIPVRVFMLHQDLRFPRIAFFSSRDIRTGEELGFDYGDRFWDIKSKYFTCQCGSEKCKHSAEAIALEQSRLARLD
In short: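 Compounds were tested as 3-fold dilutions, 10 points from a 50 μM final top (2% DMSO), after 30-min preincubation with 0.031 nM enzyme in Bicine buffer pH 7.5. Transfer of ^3H-methyl from ^3H-SAM to biotinylated histone peptide ran 60 min at room temperature and was detected by streptavidin Flashplate scintillation.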

## COc1ccc(Nc2ccc3cnn(C)c3c2)cc1OCCCN1CCCC1 [Compound 217]
EHMT1
  IC50: > 10 µM
Human EHMT2 913-1193
  IC50: > 10 µM

## COc1ccc(Nc2ccc3ncn(C)c3n2)cc1OCCCN1CCCC1 [Compound 218]
EHMT1
  IC50: > 10 µM
Human EHMT2 913-1193
  IC50: > 10 µM

## COc1ccc(Nc2ncc3ncn(C)c3n2)cc1OCCCN1CCCC1 [Compound 219]
EHMT1
  IC50: > 10 µM
Human EHMT2 913-1193
  IC50: > 10 µM

## COc1ccc(Nc2cccc3ncnn23)cc1OCCCN1CCCC1 [Compound 220]
EHMT1
  IC50: > 10 µM
Human EHMT2 913-1193
  IC50: > 10 µM

## COc1ccc(Nc2ccc3nn(C)cc3c2)cc1OCCCN1CCCC1 [Compound 221]
EHMT1
  IC50: > 10 µM
Human EHMT2 913-1193
  IC50: > 10 µM

## COc1ccc(Nc2cccc3cn(C)nc23)cc1OCCCN1CCCC1 [Compound 222]
EHMT1
  IC50: > 10 µM
Human EHMT2 913-1193
  IC50: > 10 µM

## COc1ccc(Nc2ccc3ncc(C)n3n2)cc1OCCCN1CCCC1 [Compound 223]
EHMT1
  IC50: 1 to 10 µM
Human EHMT2 913-1193
  IC50: 1 to 10 µM

## COc1ccc(Nc2nccc(-c3cnn(C)c3)n2)cc1OCCCN1CCCC1 [Compound 224]
EHMT1
  IC50: > 10 µM
Human EHMT2 913-1193
  IC50: > 10 µM

## COc1ccc(Nc2nccc(Nc3cccc(F)c3)n2)cc1OCCCN1CCCC1 [Compound 225]
EHMT1
  IC50: 1 to 10 µM
Human EHMT2 913-1193
  IC50: 1 to 10 µM

## COc1ccc(Nc2nccc(NCC3CCOCC3)n2)cc1NCCCN1CCCC1 [Compound 226]
EHMT1
  IC50: 1 to 10 µM
Human EHMT2 913-1193
  IC50: 0.1 to 1 µM

## COc1ccc(OCCCN2CCCC2)cc1Nc1nccc(NCC2CCOCC2)n1 [Compound 227]
EHMT1
  IC50: > 10 µM
Human EHMT2 913-1193
  IC50: > 10 µM

## COc1ccc(NCCCN2CCCC2)cc1Nc1nccc(NCC2CCOCC2)n1 [Compound 228]
EHMT1
  IC50: > 10 µM
Human EHMT2 913-1193
  IC50: > 10 µM

## CNc1ccnc(Nc2ccc(OC)c(OCCCN3CC[C@@H](F)C3)c2)n1 [Compound 229]
EHMT1
  IC50: 0.1 to 1 µM
Human EHMT2 913-1193
  IC50: 0.1 to 1 µM

## CNc1ccnc(Nc2ccc(OC)c(OCCCN3CC(F)C3)c2)n1 [Compound 230]
EHMT1
  IC50: 1 to 10 µM
Human EHMT2 913-1193
  IC50: 1 to 10 µM

## CNc1nccc(Nc2ccc(OC)c(OCCCN3CCCC3)c2)n1 [Compound 231]
EHMT1
  IC50: 0.1 to 1 µM
Human EHMT2 913-1193
  IC50: 0.1 to 1 µM

## CNc1cc(C)nc(Nc2ccc(F)c(OCCCN3CCCC3)c2)n1 [Compound 232]
EHMT1
  IC50: > 10 µM
Human EHMT2 913-1193
  IC50: > 10 µM

## CNc1nc(Nc2ccc(OC)c(OCCCN3CCCC3)c2)ncc1C#N [Compound 233]
EHMT1
  IC50: > 10 µM
Human EHMT2 913-1193
  IC50: > 10 µM

## CNc1nc(Nc2ccc(OC)c(OCCCN3CCCC3)c2)ncc1C(F)(F)F [Compound 234]
EHMT1
  IC50: > 10 µM
Human EHMT2 913-1193
  IC50: > 10 µM

## CNc1ncc(C(F)(F)F)c(Nc2ccc(OC)c(OCCCN3CCCC3)c2)n1 [Compound 235]
EHMT1
  IC50: > 10 µM
Human EHMT2 913-1193
  IC50: > 10 µM

## CNc1nc(Nc2ccc(OC)c(OCCCN3CCCC3)c2)nc(C)c1F [Compound 236]
EHMT1
  IC50: 0.1 to 1 µM
Human EHMT2 913-1193
  IC50: 0.1 to 1 µM

## CNc1ccnc(Nc2ccc(OC)c(OCCN3CCOCC3)c2)n1 [Compound 237]
EHMT1
  IC50: 1 to 10 µM
Human EHMT2 913-1193
  IC50: 1 to 10 µM

## CNc1ccnc(Nc2ccc3c(c2)N(C(=O)CCN(C)C)CC3)n1 [Compound 239]
EHMT1
  IC50: > 10 µM
Human EHMT2 913-1193
  IC50: > 10 µM

## CCc1cc(NC)nc(Nc2ccc(OC)c(OCCCN3CCCC3)c2)n1 [Compound 240]
EHMT1
  IC50: < 0.1 µM
Human EHMT2 913-1193
  IC50: < 0.1 µM

## COc1ccc(Nc2nccc(CNC3CCOCC3)n2)cc1OCCCNc1ccccc1 [Compound 241]
EHMT1
  IC50: > 10 µM
Human EHMT2 913-1193
  IC50: > 10 µM

## COc1ccc(Nc2cnnc(NCC3CCN(C(C)=O)CC3)c2)cc1OCCCN1CCCC1 [Compound 242]
EHMT1
  IC50: 1 to 10 µM
Human EHMT2 913-1193
  IC50: 1 to 10 µM

## COc1ccc(Nc2nccc(NCC3CCOCC3)n2)cc1OC1CC2(C1)CN(C)C2 [Compound 243]
EHMT1
  IC50: > 10 µM
Human EHMT2 913-1193
  IC50: > 10 µM

## CNc1ccnc(Nc2ccc(F)c(OCCCN3CCCC3)c2)n1 [Compound 244]
EHMT1
  IC50: > 10 µM
Human EHMT2 913-1193
  IC50: > 10 µM

## COc1ccc(Nc2nccc(N)n2)cc1OCCCN1CCCC1 [Compound 245]
EHMT1
  IC50: 0.1 to 1 µM
Human EHMT2 913-1193
  IC50: 0.1 to 1 µM

## CNc1cnnc(Nc2ccc(OC)c(OCCCN3CCCC3)c2)c1 [Compound 246]
EHMT1
  IC50: 0.1 to 1 µM
Human EHMT2 913-1193
  IC50: 0.1 to 1 µM

## CNc1cncc(Nc2ccc(OC)c(OCCCN3CCCC3)c2)n1 [Compound 247]
EHMT1
  IC50: 1 to 10 µM
Human EHMT2 913-1193
  IC50: 1 to 10 µM

## CNc1cc(Nc2cc(OCCCN3CCCC3)c(OC)cn2)ccn1 [Compound 248]
EHMT1
  IC50: < 0.1 µM
Human EHMT2 913-1193
  IC50: < 0.1 µM

## COc1ccc(Nc2nccc3[nH]ncc23)cc1OCCCN1CCCC1 [Compound 249]
EHMT1
  IC50: > 10 µM
Human EHMT2 913-1193
  IC50: > 10 µM

## COc1ccc(Nc2ccnc3[nH]ccc23)cc1OCCCN1CCCC1 [Compound 250]
EHMT1
  IC50: 1 to 10 µM
Human EHMT2 913-1193
  IC50: 1 to 10 µM

## CC(C)Nc1ccnc(Nc2cccc(OCCCN3CC[C@@H](F)C3)c2)n1 [Compound 251]
EHMT1
  IC50: > 10 µM
Human EHMT2 913-1193
  IC50: > 10 µM

## CNc1ccnc(Nc2cccc(OC[C@H](O)CN3CCCC3)c2)n1 [Compound 252]
EHMT1
  IC50: 1 to 10 µM
Human EHMT2 913-1193
  IC50: 1 to 10 µM

## CNc1ccnc(Nc2cccc(OC[C@@H](O)CN3CCCC3)c2)n1 [Compound 253]
EHMT1
  IC50: > 10 µM
Human EHMT2 913-1193
  IC50: > 10 µM
